This assay deals with cerebral organoids. The assay is described as follows: RT-qPCR of marker gene expression after DAPT treatment. The class given is cell-based, human. To be noted: for expression of Hes1: single-cell DAPT method (step (iv)). Here is the method: Total RNA was obtained with an RNeasyMicroKit (QIAGEN), and reverse transcription reaction was performed with a SuperScript III First-Strand Synthesis System ([…]) in accordance with a protocol from the provider. Quantitative PCR was carried out by using TaqMan (TM) Gene Expression Master Mix (Thermo Fisher Scientific Inc.) or SYBR Green Master Mix (Thermo Fisher Scientific Inc.) in accordance with instruction from the manufacturer. The expression levels of genes were normalized to that for GAPDH by using the […] method.
To analyze the influence of the DAPT treatment period on differentiation, cerebral organoids in week 7 of induction of differentiation were treated with 10 μM DAPT for 3 to 7 days according to a method or scheme shown in FIG. 16(A) (organoid DAPT method), and the variation of gene expression was analyzed by RT-qPCR; the results are shown in FIG. 16(B). The ordinate represents relative expression levels to GAPDH.
Furthermore, organoids on Day 25, Day 32, Day 39, and Day 72 (the periods of induction of differentiation: about 4 weeks, 5 weeks, 6 weeks, and 10 weeks, respectively) were cultured in the presence or absence of DAPT for 3 days, and the cerebral organoids on Day 28 (4 wk), Day 35 (5 wk), Day 42 (6 wk), and Day 75 (10 wk) were analyzed for the expression levels of marker genes by RT-qPCR; the results of analysis of the relative expression levels of the markers are shown in FIG. 18. […] For the organoids in week 10, no reduction in expression of Ki67 was found, and no influence was found in expression of Satb2, too.
In the “single-cell DAPT method (DAPT treatment is performed in step (iv))” in FIG. 24(B), cerebral organoids were screened on day 38 after the initiation of induction of differentiation and dispersed into single cells by the method described for step (iii) in Example 4, and the cells were then suspended in a culture medium obtained by adding 10 ng/mL GDNF, 20 ng/mL BDNF, 200 μM ascorbic acid, 400 μM dibutyryl-cAMP, and 30 μM Y-27632 to the culture medium in step (2b) with addition of DAPT at a concentration of 0 μM, 0.1 μM, 1 μM, or 10 μM. Subsequently, the cells were regathered by the method described for step (iv) in Example 4 in the presence of DAPT, and cultured for 1 day, 2 days, or 3 days. Thereafter, the culture medium was switched to a culture medium obtained by adding 10 ng/mL GDNF, 20 ng/mL BDNF, 200 μM ascorbic acid, and 400 μM dibutyryl-cAMP to the culture medium in step (2b), and culture was continued until day 10 after the initiation of reaggregation. The cells on day 3, day 4, or day 10 after the initiation of reaggregation were analyzed by RT-qPCR, and the cells on day 10 were analyzed by flow cytometry; the results are shown in FIGS. 25 to 27.
A general note: Real-time PCR tracks product formation cycle by cycle.

Setting [1] is: cerebral organoids in week 7, 10 μM DAPT for 3 to 7 days (organoid DAPT method).
[2] abbreviates: organoids in week 4 to week 6, DAPT for 3 days.
[3] abbreviates: organoids in week 10, DAPT for 3 days.

As to `C[C@H](NC(=O)Cc1cc(F)cc(F)c1)C(=O)N[C@H](C(=O)OC(C)(C)C)c1ccccc1` [DAPT, N-[N-(3,5-difluorophenacetyl)-L-alanyl]-S-phenylglycine t-butyl ester], under setting [1], the “expression of Ctip2” value is “enhanced as the DAPT treatment period was prolonged”; the “expressions of Pax6, Sox2, and Ki67” value was “declined as the DAPT treatment period was extended”. Under setting [2], the “expression of Ctip2” value is given as “enhanced expression”; the “expression of Pax6 and Ki67” value is recorded as “reduced expression”. Moreover, under setting [3], the “expression of Ki67” value is “no reduction” and the “expression of Satb2” value is recorded as “no influence”. For the same compound, for the setting “10 μM DAPT, 1-day and 2-day treatment, as culture proceeded”, the “expression of Hes1” value is reported as “upregulated again”. In addition, the “expression of Hes1” value (10 μM DAPT, 3-day treatment) is on record as “suppressed over the 10 days”. For the setting “DAPT 0.1 to 1 μM, 3 days”, the “expression of Hes1” value was “not sufficiently suppressed”.

Source of the values: patent US20240279602A1, “METHOD FOR PRODUCING CEREBRAL CORTICAL CELL PREPARATION DERIVED FROM HUMAN PLURIPOTENT STEM CELLS” (Kyoto University, priority 2021, published 2024).
